ChEMBL document CHEMBL5096162, “A review on ferulic acid and analogs based scaffolds for the management of Alzheimer's disease” (Eur J Med Chem, 2021)

Tests used:
[1] = Antioxidant activity assessed as DPPH radical scavenging activity measured for 30 mins in dark by UV-Vis spectrophotometric analysis; assay type: functional
Acetylcholinesterase [2] = target: T1, Acetylcholinesterase (Electrophorus electricus, UniProt O42275); assay: Inhibition of electric eel AChE preincubated for 15 mins followed by substrate addition using acetylthiocholine iodide as substrate by Ellman's method
[3] = Antioxidant activity assessed as DPPH radical scavenging activity at 1 mM incubated for 30 mins by microplate reader method; assay type: functional
[4] = target: Amyloid-beta precursor protein (Homo sapiens) (UniProt P05067); assay: Inhibition of amyloid beta (1 to 42) (unknown origin) self aggregation assessed as reduction in fluorescence intensity at 80 uM incubated for 24 hrs by ThT-based fluorimetric assay
Cholinesterase [5] = target: T2, Cholinesterase (Equus caballus, UniProt P81908); assay: Inhibition of equine serum BuchE preincubated for 6 mins followed by substrate addition using butyrylthiocholine iodide as substrate by DTNB reagent based Ellman method
[6] = target: Amyloid-beta precursor protein (Homo sapiens) (UniProt P05067); assay: Inhibition of self-induced amyloid beta (1 to 42) (unknown origin) aggregation at 20 uM incubated for 46 to 48 hrs in dark by ThT-based fluorimetric assay; details: time 46-48 hrs
Cholinesterase [7] = target: T3, Cholinesterase (Homo sapiens, UniProt P06276)
Description: Inhibition of human BuchE preincubated for 6 mins followed by substrate addition using butyrylthiocholine iodide as substrate by DTNB reagent based Ellman method

Cholinesterase [8] = target: T2, Cholinesterase; assay: Inhibition of equine serum BuChE preincubated for 5 mins followed by substrate addition and measured after 5 mins using S-butyrylthiocholine iodide as substrate by Ellman's method
[9] = Antioxidant activity assessed as trolox equivalent of ABTS radical cation scavenging activity measured after 6 mins by UV spectrophotometeric analysis; assay type: functional
[10] = Antioxidant activity assessed as DPPH radical scavenging activity incubated for 30 mins by UV-Vis spectrophotometric analysis; assay type: functional
Acetylcholinesterase [11] = target: T1, Acetylcholinesterase; assay: Inhibition of electric eel AChE preincubated for 5 mins followed by substrate addition using acetylthiocholine iodide as substrate by Ellman's method
Cholinesterase [12] = target: T2, Cholinesterase; assay: Inhibition of equine BuChE incubated for 15 mins using butyrylthiocholine as substrate by Ellman's method
[13] = Antioxidant activity assessed as trolox equivalent of ORAC radical scavenging activity by ORAC-FL assay; assay type: functional
[14] = target: Amyloid-beta precursor protein (Homo sapiens) (UniProt P05067); assay: Inhibition of self-induced amyloid beta (1 to 42) (unknown origin) aggregation assessed as disaggregation at 25 uM incubated for 24 hrs in dark by ThT-based fluorimetric assay
[15] = target: T4, Amine oxidase [flavin-containing] A (Homo sapiens, UniProt P21397); assay: Inhibition of recombinant human MAO-A assessed as measuring amount of 4-hydroxyquinoline using kynuramine as substrate incubated for 30 mins by fluorescence spectrophotometry
T4 sequence (P21397 whole entry): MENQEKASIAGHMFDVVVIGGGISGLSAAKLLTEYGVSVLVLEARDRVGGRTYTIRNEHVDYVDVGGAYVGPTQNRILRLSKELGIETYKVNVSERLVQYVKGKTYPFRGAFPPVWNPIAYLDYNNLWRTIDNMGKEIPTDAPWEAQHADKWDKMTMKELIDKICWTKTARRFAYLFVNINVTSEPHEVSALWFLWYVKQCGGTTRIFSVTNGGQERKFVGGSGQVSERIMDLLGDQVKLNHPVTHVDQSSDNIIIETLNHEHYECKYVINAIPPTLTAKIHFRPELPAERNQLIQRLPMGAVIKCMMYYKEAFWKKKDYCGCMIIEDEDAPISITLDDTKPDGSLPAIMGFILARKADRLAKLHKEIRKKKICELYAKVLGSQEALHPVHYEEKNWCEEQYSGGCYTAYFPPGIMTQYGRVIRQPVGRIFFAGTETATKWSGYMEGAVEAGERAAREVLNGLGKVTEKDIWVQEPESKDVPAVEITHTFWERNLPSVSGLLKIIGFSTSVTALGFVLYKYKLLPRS

[16] = target: Amyloid-beta precursor protein (Homo sapiens) (UniProt P05067); assay: Inhibition of self-induced amyloid beta (1 to 42) (unknown origin) aggregation at 25 uM incubated for 24 hrs in dark by ThT-based fluorimetric assay
[17] = target: T5, Amine oxidase [flavin-containing] B (Homo sapiens, UniProt P27338); assay: Inhibition of recombinant human MAO-B assessed as measuring amount of 4-hydroxyquinoline using kynuramine as substrate incubated for 30 mins by fluorescence spectrophotometry
T5 sequence (P27338 whole entry): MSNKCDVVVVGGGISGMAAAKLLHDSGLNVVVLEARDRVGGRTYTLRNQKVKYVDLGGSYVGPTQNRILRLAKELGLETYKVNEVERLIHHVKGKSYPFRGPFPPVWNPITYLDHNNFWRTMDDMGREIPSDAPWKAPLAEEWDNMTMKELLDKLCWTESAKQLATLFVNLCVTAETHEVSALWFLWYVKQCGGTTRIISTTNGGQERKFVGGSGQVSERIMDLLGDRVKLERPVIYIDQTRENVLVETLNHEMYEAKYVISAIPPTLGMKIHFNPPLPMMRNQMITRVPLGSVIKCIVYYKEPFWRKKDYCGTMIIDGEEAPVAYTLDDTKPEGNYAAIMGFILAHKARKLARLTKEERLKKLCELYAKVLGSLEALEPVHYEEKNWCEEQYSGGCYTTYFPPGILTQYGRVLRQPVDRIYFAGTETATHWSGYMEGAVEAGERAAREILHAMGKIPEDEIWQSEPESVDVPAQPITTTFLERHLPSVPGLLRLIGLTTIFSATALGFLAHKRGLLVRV

Acetylcholinesterase [18] = target: T1, Acetylcholinesterase; assay: Inhibition of electric eel AChE incubated for 15 mins using acetylthiocholine as substrate by Ellman's method
Cholinesterase [19] = target: T3, Cholinesterase; assay: Inhibition of human BuchE preincubated for 30 mins followed by substrate addition using butyrylthiocholine iodide as substrate by Ellman's method
[20] = Antioxidant activity assessed as GO radical cation scavenging activity measured for 30 mins by spectrophotometeric analysis; assay type: functional
[21] = Antioxidant activity assessed as ABTS radical cation scavenging activity measured every minute for 15 mins by spectrophotometeric analysis; assay type: functional
[22] = Antioxidant activity of compound assessed as trolox equivalent of AAPH radical scavenging activity preincubated for 15 mins followed by AAPH addition and measured for 120 mins by ORAC-FL assay; assay type: functional; details: time 135.0 min
[23] = Antioxidant activity assessed as DPPH radical scavenging activity measured for 45 mins by spectrophotometric analysis; assay type: functional
[24] = Metal chelating activity assessed as Fe2+ -ferrozoine complex formation incubated for 10 mins followed by ferrozine addition and further incubated for 10 mins by spectrophotometric assay; details: time 20.0 min
[25] = target: Acetylcholinesterase (Electrophorus electricus) (UniProt O42275); assay: Inhibition of electric eel AChE at 1 uM by Ellman's method
[26] = target: Cholinesterase (Equus caballus) (UniProt P81908); assay: Inhibition of equine BuChE at 1 uM by Ellman's method
[27] = target: Amyloid-beta precursor protein (Homo sapiens) (UniProt P05067); assay: Inhibition of amyloid beta (1 to 42) (unknown origin) self aggregation assessed as reduction in fluorescence intensity at 20 uM incubated for 24 hrs by ThT-based fluorimetric assay
Beta-secretase 1 = Beta-secretase 1 (Homo sapiens, UniProt P56817); assay: Inhibition of human BACE-1 by FRET-based fluorometric assay
SH-SY5Y = assay: Neuroprotective activity against amyloid beta-induced cytotoxicity in human SH-SY5Y cells assessed as cell viability at 10 to 80 uM by MTT assay; assay type: functional; details: dose 10-80 µM
Acetylcholinesterase [28] = target: Acetylcholinesterase (Homo sapiens, UniProt P22303); assay: Inhibition of human AchE using acetylthiocholine iodide as substrate by Ellman colorimetric assay
Cholinesterase [29] = target: T3, Cholinesterase; assay: Inhibition of human BuchE using butyrylthiocholine iodide as substrate by Ellman colorimetric assay
[30] = Antioxidant activity assessed as DPPH radical scavenging activity at 200 uM incubated for 2 hrs in dark by spectrophotometric analysis; assay type: functional
[31] = Antioxidant activity of compound assessed as trolox equivalent of AAPH radical scavenging activity preincubated for 15 mins followed by AAPH addition and measured every 1 min for 60 mins by ORAC-FL assay; assay type: functional; details: time 75.0 min
[32] = target: Amyloid-beta precursor protein (Homo sapiens) (UniProt P05067); assay: Inhibition of self-induced amyloid beta (1 to 40) (unknown origin) aggregation at 20 uM incubated for 48 hrs by ThT-based fluorimetric assay

Chain of Amyloid-beta precursor protein (Homo sapiens) (P05067 whole entry): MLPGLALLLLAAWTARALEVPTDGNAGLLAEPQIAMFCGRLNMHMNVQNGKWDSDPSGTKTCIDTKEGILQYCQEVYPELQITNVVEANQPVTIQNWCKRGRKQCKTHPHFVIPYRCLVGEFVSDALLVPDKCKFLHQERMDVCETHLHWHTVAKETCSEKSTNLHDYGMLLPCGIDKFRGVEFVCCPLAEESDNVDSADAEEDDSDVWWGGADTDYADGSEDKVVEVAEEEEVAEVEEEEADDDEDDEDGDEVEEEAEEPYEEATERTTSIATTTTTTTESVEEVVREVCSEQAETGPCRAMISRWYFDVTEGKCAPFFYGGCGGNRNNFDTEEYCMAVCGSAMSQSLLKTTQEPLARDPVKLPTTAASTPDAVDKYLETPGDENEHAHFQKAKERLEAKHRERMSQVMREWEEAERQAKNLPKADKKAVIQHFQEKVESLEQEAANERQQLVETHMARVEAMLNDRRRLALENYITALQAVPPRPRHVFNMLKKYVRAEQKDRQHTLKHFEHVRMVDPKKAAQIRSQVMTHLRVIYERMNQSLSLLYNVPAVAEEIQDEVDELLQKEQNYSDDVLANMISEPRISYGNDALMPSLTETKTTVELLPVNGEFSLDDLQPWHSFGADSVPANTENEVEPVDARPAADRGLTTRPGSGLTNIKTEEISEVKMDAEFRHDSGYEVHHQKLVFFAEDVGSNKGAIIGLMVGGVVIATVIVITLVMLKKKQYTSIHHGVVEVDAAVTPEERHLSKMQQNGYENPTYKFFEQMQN
T3 sequence (P06276 whole entry): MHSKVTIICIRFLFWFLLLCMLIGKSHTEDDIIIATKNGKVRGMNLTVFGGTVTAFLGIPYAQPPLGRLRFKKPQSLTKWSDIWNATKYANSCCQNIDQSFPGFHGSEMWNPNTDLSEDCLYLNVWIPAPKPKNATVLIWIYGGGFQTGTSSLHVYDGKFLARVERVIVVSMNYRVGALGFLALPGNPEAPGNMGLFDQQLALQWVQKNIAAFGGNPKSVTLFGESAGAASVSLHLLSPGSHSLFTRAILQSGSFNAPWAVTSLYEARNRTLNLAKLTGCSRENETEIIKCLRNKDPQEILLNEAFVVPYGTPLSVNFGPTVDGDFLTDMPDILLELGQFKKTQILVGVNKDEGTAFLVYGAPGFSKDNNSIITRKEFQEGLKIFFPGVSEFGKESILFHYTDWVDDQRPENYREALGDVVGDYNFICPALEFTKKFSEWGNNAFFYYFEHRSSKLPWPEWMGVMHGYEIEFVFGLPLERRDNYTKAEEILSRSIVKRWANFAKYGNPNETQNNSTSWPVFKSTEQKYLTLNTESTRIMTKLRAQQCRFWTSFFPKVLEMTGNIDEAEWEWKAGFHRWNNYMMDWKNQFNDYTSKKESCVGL
T1 sequence (O42275 whole entry): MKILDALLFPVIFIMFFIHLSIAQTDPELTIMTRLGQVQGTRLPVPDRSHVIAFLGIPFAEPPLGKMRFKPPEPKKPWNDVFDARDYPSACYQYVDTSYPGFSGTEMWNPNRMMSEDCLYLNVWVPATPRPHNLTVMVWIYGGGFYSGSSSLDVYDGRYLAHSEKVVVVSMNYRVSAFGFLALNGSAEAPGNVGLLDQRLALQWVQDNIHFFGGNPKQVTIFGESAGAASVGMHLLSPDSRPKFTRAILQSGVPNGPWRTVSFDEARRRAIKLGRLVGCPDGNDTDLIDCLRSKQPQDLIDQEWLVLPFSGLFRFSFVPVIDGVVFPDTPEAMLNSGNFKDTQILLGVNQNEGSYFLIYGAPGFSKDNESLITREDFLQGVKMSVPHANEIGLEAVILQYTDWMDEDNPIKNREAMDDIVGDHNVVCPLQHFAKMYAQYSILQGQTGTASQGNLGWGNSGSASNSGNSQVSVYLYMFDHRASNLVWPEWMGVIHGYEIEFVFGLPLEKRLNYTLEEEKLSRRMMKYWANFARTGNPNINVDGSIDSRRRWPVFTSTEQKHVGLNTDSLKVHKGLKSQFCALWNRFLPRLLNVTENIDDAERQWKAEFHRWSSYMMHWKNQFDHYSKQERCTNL
T2 sequence (P81908 whole entry): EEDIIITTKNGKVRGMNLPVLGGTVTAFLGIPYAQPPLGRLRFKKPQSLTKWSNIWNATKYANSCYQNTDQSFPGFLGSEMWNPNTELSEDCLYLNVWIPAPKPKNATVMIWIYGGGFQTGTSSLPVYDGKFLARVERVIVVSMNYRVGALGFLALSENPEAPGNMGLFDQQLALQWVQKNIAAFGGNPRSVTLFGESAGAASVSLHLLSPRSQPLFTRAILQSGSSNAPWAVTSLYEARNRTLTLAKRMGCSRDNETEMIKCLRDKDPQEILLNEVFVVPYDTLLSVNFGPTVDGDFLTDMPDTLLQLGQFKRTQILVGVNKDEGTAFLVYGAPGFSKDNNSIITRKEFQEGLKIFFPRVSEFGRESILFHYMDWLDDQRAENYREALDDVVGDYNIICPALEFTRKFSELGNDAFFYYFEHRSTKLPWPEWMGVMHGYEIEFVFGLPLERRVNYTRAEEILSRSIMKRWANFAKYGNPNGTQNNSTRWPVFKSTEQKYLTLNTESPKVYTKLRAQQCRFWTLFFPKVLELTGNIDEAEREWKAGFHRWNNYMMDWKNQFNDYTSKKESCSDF
Chain of Beta-secretase 1 (P56817 whole entry): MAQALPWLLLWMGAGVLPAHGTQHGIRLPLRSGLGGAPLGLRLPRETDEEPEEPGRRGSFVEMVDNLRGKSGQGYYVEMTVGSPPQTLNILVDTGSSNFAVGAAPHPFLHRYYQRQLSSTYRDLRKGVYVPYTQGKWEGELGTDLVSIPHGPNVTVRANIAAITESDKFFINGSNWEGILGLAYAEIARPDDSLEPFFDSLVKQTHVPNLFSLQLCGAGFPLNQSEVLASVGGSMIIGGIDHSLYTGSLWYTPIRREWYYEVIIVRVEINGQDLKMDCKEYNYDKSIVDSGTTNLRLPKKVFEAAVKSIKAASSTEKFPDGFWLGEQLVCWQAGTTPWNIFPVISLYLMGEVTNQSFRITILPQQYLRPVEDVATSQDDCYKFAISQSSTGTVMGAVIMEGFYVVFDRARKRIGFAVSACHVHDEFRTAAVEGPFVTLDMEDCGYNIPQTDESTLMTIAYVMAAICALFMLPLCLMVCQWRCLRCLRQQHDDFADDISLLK
Chain of Acetylcholinesterase (Electrophorus electricus) (O42275 24-633 limits assumed): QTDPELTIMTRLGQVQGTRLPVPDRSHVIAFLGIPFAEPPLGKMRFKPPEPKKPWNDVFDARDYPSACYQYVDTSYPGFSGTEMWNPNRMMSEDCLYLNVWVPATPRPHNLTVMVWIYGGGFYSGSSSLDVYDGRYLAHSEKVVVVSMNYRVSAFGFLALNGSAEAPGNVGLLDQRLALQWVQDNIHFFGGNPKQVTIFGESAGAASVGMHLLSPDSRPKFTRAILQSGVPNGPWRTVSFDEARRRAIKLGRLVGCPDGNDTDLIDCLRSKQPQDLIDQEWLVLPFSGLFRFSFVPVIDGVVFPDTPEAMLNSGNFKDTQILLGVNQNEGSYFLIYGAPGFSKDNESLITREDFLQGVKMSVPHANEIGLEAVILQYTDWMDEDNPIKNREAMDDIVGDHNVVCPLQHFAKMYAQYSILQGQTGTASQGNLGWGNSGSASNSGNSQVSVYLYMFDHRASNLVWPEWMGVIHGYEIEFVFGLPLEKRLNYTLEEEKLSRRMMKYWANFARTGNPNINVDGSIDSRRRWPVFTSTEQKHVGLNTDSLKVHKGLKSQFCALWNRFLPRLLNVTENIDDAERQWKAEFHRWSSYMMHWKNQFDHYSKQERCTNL
Chain of Cholinesterase (Equus caballus) (P81908 whole entry): as the sequence (P81908 whole entry) above
Chain of Acetylcholinesterase (Homo sapiens, UniProt P22303) (P22303 whole entry): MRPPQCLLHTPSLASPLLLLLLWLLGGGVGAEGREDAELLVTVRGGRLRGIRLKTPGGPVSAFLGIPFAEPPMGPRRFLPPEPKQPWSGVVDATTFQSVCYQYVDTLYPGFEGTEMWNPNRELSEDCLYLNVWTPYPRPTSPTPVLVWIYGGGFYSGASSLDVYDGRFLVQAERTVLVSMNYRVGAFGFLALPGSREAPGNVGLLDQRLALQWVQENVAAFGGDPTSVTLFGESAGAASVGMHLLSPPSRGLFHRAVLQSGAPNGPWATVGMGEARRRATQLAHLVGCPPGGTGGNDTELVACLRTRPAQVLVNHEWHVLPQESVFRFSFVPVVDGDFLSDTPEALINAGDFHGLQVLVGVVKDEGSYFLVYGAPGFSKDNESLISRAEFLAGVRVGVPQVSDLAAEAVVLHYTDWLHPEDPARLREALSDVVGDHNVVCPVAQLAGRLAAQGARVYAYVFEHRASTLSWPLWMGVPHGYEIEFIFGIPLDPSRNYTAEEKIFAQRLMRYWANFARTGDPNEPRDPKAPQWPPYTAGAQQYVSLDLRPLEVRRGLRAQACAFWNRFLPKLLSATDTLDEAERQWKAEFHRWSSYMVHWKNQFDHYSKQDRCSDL

For O=C(/C=C/c1ccc(O)c(O)c1)Nc1cccc2ccccc12, which IC50 [1] is on record?
Its IC50 is 20.8 µM.

With O=C(/C=C/CCc1ccc2c(c1)OCO2)NCCCNc1c2c(nc3ccccc13)CCCC2 as the compound, how does the IC50 (Acetylcholinesterase [2]) read?
The IC50 was 0.13 µM.

What about the Activity [3] of the same compound?
Its Activity is 20.8%.

And the inhibition [4]?
Its inhibition is 72.2%.

Which results are given for COc1ccc(/C=C/C(=O)Nc2cc[n+](Cc3cccc(F)c3)cc2)cc1OC?
IC50 (Cholinesterase [5]): 0.0031 µM; inhibition [6]: 63.4%; IC50 (Cholinesterase [7]): 0.0048 µM

Which IC50 (Cholinesterase [8]) does the source give for O=C(/C=C/c1ccc(O)c(O)c1)NCCCCCC[P+](c1ccccc1)(c1ccccc1)c1ccccc1 here?
The IC50 was 0.15 µM.

For COc1cc(/C=C/C(=O)NCCC2CCN(Cc3ccccc3)CC2)cc(OC)c1O, which Activity [9] is on record?
The Activity was 1.78 equiv.

And the IC50 [10]?
The IC50 was 24.9 µM.

What about the IC50 (Acetylcholinesterase [11]) of the same compound?
The IC50 was 0.39 µM.

What does the source list for COc1cc(/C=C/C(=O)N2CCc3ccccc3C2)ccc1OCCCCN(CNCc1ccccc1)CNCc1ccccc1?
IC50 (Cholinesterase [12]): 8.93 µM; Activity [13]: 0.52 equiv; inhibition [14]: 43.8%; IC50 [15]: 6.3 µM; inhibition [16]: 59.3%; IC50 [17]: 8.6 µM; IC50 (Acetylcholinesterase [18]): 12.1 µM

With CCCCNC(=O)O[C@@H]1C[C@H]2O[C@@H](OC(=O)/C=C/c3ccc(O)c(OC)c3)C[C@H]2O1 as the compound, how does the IC50 (Cholinesterase [19]) read?
The IC50 was 0.43 µM.

Which results are given for COc1cc(/C=C/C(=O)O)ccc1O [FERULATE]?
IC50 [20]: 37.5 µM; IC50 [21]: 16.8 µM; Activity [22]: 0.34; IC50 [23]: 64.6 µM; Activity [24]: 8.9%

With O=C(CCCCC1CCSS1)O[C@H]1C[C@H]2O[C@H](OC(=O)NCc3ccccc3)C[C@H]2O1 (some centres undefined) as the compound, how does the IC50 (Cholinesterase [19]) read?
The IC50 was 0.15 µM.

Which results are given for COc1cc(/C=C/C(=O)N(CCC2CCN(Cc3ccccc3)CC2)CC(=O)Nc2c(C)cccc2Cl)ccc1O?
Activity [13]: 6.9 equiv; inhibition [25]: 24.8%; inhibition [26]: 57.3%

What does the source list for COc1cc(/C=C/C(=O)NCCC2CCN(Cc3ccccc3)CC2)ccc1O?
Activity [9]: 1.39 equiv; IC50 [10]: 34.1 µM

With COC(=O)/C=C/c1ccc(OCCCCCN2CCN(CC(=O)Nc3c4c(nc5ccccc35)CCCC4)CC2)c(OC)c1 as the compound, how does the inhibition [27] read?
Its inhibition is 37.2%.

For CCCCNC(=O)O[C@@H]1C[C@H]2O[C@@H](OC(=O)CCCCC3CCSS3)C[C@H]2O1 (some centres undefined), which IC50 (Cholinesterase [19]) is on record?
Its IC50 is 0.17 µM.

For COc1cc(/C=C/c2nnc(-c3ccc(OC(F)(F)F)cc3)o2)ccc1O, which IC50 (Beta-secretase 1) is on record?
Its IC50 is 0.21 µM.

What about the Activity (SH-SY5Y) of the same compound?
The Activity was 65.11%.

What about the IC50 (Acetylcholinesterase [28]) of the same compound?
Its IC50 is 0.092 µM.

What about the IC50 (Cholinesterase [29]) of the same compound?
The IC50 was 0.21 µM.

What does the source list for O=C(NCc1ccccc1)C(c1cnc2ccccc2c1)N(Cc1ccccc1)C(=O)/C=C/c1ccc(O)c(O)c1 (centres undefined)?
Activity [30]: 89.1%; Activity [31]: 5.48 equiv; inhibition [32]: 66.4%
